The target in data set [1] is T1, Kelch-like ECH-associated protein 1/Microtubule-associated protein tau/Cullin-3 (Homo sapiens) (UniProt P10636+Q14145+Q13618). Briefly: Induction of Keap1/Cul3- mediated EGFP tagged Tau (unknown origin) degradation in human SH-SY5Y cells at 20 uM after 10 hrs by flow cytometry analysis. The data set is classed as cell-based. In general terms: A flow cytometer gives signals particle by particle.

The target of data set [2] is T1, Kelch-like ECH-associated protein 1/Microtubule-associated protein tau/Cullin-3 (Homo sapiens). As to the kind of experiment: Induction of Keap1/Cul3- mediated EGFP tagged Tau (unknown origin) degradation in human SH-SY5Y cells at 10 uM incubated for 10 hrs in presence of proteasome inhibitor MG132 by Western blot analysis. Type of data set: cell-based. Background: In western blotting, separated proteins are transferred to a membrane and probed.

For data set [3] the target is unchanged. As to the kind of experiment: Induction of Keap1/Cul3- mediated EGFP tagged Tau (unknown origin) degradation in human SH-SY5Y cells at 10 uM incubated for 10 hrs in absence of proteasome inhibitor MG132 by Western blot analysis. The data set is classed as cell-based.
Data set [4] has as its target Cullin-3/Microtubule-associated protein tau (Homo sapiens) (UniProt P10636+Q13618). Briefly: Induction of Cul3- mediated EGFP tagged Tau (unknown origin) degradation in human SH-SY5Y cells harboring Keap1 siRNA at 10 uM by Western blot analysis. Type of data set: cell-based.
For data set [5], the target named is Kelch-like ECH-associated protein 1/Microtubule-associated protein tau (Homo sapiens) (UniProt P10636+Q14145). Briefly: Binding affinity to Keap1/Tau in human SH-SY5Y cells at 10 to 20 uM by Western blot analysis. The data set is classed as cell-based.
Kelch-like ECH-associated protein 1/Microtubule-associated protein tau (Homo sapiens), sequence (P10636 whole entry, looked up, the tested form may be a part): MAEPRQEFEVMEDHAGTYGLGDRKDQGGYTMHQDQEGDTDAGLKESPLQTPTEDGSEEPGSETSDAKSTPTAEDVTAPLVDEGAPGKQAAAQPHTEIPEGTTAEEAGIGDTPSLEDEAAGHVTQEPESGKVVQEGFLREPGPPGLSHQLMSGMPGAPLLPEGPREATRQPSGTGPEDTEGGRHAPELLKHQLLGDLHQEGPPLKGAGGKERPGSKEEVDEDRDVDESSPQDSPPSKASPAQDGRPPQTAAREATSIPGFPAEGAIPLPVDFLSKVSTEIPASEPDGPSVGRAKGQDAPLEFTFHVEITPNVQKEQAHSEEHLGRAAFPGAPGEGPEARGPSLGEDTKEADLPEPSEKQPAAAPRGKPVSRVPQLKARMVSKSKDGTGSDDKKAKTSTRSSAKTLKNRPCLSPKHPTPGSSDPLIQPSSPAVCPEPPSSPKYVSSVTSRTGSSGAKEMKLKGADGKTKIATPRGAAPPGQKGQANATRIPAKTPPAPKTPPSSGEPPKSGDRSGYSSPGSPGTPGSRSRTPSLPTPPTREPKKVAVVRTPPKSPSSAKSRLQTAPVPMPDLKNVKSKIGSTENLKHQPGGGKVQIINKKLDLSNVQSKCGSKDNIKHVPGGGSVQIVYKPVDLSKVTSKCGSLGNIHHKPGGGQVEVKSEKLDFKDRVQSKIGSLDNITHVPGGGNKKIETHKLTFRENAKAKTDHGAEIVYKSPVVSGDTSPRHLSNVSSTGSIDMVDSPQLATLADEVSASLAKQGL
Kelch-like ECH-associated protein 1/Microtubule-associated protein tau (Homo sapiens), sequence (Q14145 whole entry, looked up, the tested form may be a part): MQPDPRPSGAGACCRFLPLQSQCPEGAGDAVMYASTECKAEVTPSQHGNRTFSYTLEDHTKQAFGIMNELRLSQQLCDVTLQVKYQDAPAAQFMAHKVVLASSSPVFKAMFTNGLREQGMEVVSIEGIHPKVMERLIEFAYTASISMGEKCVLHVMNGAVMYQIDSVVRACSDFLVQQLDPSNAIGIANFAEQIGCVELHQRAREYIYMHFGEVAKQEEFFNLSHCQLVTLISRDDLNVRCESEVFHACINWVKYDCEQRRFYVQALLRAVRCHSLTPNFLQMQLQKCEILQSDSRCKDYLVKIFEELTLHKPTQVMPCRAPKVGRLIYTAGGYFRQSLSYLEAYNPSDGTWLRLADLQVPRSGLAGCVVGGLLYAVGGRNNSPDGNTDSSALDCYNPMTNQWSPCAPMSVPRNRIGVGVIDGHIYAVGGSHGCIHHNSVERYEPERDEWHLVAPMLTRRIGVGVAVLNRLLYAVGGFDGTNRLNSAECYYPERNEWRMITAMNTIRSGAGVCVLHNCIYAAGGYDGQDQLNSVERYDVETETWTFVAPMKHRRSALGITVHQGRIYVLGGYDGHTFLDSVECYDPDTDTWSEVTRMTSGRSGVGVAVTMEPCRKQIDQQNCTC
Data set [6] concerns the target Microtubule-associated protein tau (Homo sapiens, UniProt P10636). Briefly: Binding affinity to human Tau (1 to 441 residues) by ITC method.
Data set [7] can be described thus: Drug uptake in human SH-SY5Y cells using N-terminal TAMRA labeled compound at 10 uM after 8 hrs by DAPI staining-based laser scanning confocal microscopic analysis. Type of data set: ADME, cell-based.
Data set [8] is described as follows: Drug uptake in human SH-SY5Y cells using N-terminal TAMRA labeled compound at 10 uM after 12 hrs by Flow cytometry analysis. Type of data set: ADME, cell-based.
Data set [9] addresses Kelch-like ECH-associated protein 1 (Homo sapiens, UniProt Q14145). Briefly: Binding affinity to human Keap1 (322 to 609 residues) by ITC method. A general note: In ITC the heat of successive injections is recorded.
A short description of data set [10]: Induction of Keap1/Cul3- mediated EGFP tagged Tau (unknown origin) degredation in mouse Neuro2a cells by Western blot analysis. Type of data set: cell-based.
Data set [11] in a line: Induction of Keap1/Cul3- mediated EGFP tagged Tau (unknown origin) degradation in rat PC12 cells by Western blot analysis. The data set is classed as cell-based.

Activity, Kd and Drug uptake data for 5 compounds are collected here from ChEMBL document CHEMBL4145510, “Discovery of a Keap1-dependent peptide PROTAC to knockdown Tau by ubiquitination-proteasome degradation pathway” (Eur J Med Chem, 2018).

Each structure is given as a SMILES string. Calls of active or inactive are those of the source. The calls are words filed in the database; no cut-off is given here.

T1 sequence (P10636 whole entry, looked up): as the sequence (P10636 whole entry, looked up, the tested form may be a part) above
T1 sequence (Q13618 whole entry, looked up): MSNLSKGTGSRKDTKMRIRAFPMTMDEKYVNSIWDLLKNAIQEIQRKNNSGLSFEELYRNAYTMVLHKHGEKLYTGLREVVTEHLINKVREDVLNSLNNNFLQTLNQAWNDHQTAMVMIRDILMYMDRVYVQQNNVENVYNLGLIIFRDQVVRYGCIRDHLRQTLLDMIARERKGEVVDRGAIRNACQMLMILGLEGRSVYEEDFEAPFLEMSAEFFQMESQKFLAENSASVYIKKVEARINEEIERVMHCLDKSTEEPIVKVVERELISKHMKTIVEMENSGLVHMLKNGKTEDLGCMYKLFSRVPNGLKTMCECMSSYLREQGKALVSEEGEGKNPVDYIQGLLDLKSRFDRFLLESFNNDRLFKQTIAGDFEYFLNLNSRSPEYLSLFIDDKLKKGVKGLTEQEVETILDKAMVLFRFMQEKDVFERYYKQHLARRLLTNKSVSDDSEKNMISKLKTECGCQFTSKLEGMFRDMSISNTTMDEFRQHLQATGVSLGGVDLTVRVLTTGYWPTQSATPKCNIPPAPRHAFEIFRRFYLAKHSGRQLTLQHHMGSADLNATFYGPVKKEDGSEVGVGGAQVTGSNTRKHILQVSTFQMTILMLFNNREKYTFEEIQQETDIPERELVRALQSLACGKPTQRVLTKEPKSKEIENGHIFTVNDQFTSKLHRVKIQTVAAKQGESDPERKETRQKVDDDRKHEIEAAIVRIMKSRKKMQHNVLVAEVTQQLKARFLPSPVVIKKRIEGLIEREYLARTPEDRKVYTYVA
T1 sequence (Q14145 whole entry, looked up): as the sequence (Q14145 whole entry, looked up, the tested form may be a part) above
Cullin-3/Microtubule-associated protein tau (Homo sapiens), sequence (P10636 whole entry, looked up): as the sequence (P10636 whole entry, looked up, the tested form may be a part) above
Cullin-3/Microtubule-associated protein tau (Homo sapiens), sequence (Q13618 whole entry, looked up): as the sequence (Q13618 whole entry, looked up) above
Microtubule-associated protein tau, sequence (P10636 whole entry, the tested form may be a part): as the sequence (P10636 whole entry, looked up, the tested form may be a part) above
Kelch-like ECH-associated protein 1, sequence (Q14145 whole entry, the tested form may be a part): as the sequence (Q14145 whole entry, looked up, the tested form may be a part) above

In the case of `CC(=O)N[C@@H](Cc1ccc(O)cc1)C(=O)N[C@@H](CCC(N)=O)C(=O)N[C@@H](CCC(N)=O)C(=O)N[C@@H](Cc1ccc(O)cc1)C(=O)N[C@@H](CCC(N)=O)C(=O)N[C@@H](CC(=O)O)C(=O)N[C@@H](C)C(=O)N[C@H](C(=O)N[C@@H](C)C(=O)N[C@@H](CC(=O)O)C(=O)N[C@@H](CCC(=O)O)C(=O)N[C@@H](CCC(N)=O)C(=O)NCC(=O)NCC(=O)NCC(=O)N[C@@H](CO)C(=O)NCC(=O)NCC(=O)N[C@@H](CC(C)C)C(=O)N[C@@H](CC(=O)O)C(=O)N1CCC[C@H]1C(=O)N[C@@H](CCC(=O)O)C(=O)N[C@H](C(=O)NCC(=O)N[C@@H](CCC(=O)O)C(=O)N[C@@H](Cc1ccc(O)cc1)C(=O)N[C@@H](CC(C)C)C(=O)N[C@H](CCCNC(=N)N)C(=O)N[C@H](CCCNC(=N)N)C(=O)N[C@H](CCCNC(=N)N)C(=O)N[C@H](CCCNC(=N)N)C(=O)N[C@H](CCCNC(=N)N)C(=O)N[C@H](CCCNC(=N)N)C(=O)N[C@H](CCCNC(=N)N)C(=O)N[C@H](CCCNC(=N)N)C(=O)O)[C@@H](C)O)[C@@H](C)O`, the outcome in [1] was inactive.
`CC(=O)N[C@@H](Cc1ccc(O)cc1)C(=O)N[C@@H](CCC(N)=O)C(=O)N[C@@H](CCC(N)=O)C(=O)N[C@@H](Cc1ccc(O)cc1)C(=O)N[C@@H](CCC(N)=O)C(=O)N[C@@H](CC(=O)O)C(=O)N[C@@H](C)C(=O)N[C@H](C(=O)N[C@@H](C)C(=O)N[C@@H](CC(=O)O)C(=O)N[C@@H](CCC(=O)O)C(=O)N[C@@H](CCC(N)=O)C(=O)NCC(=O)NCC(=O)N[C@@H](CO)C(=O)NCC(=O)N[C@@H](CO)C(=O)N[C@@H](CC(C)C)C(=O)N[C@@H](CC(=O)O)C(=O)N1CCC[C@H]1C(=O)N[C@@H](C)C(=O)N[C@H](C(=O)NCC(=O)N[C@@H](CCC(=O)O)C(=O)N[C@@H](Cc1ccc(O)cc1)C(=O)N[C@@H](CC(C)C)C(=O)N[C@H](CCCNC(=N)N)C(=O)N[C@H](CCCNC(=N)N)C(=O)N[C@H](CCCNC(=N)N)C(=O)N[C@H](CCCNC(=N)N)C(=O)N[C@H](CCCNC(=N)N)C(=O)N[C@H](CCCNC(=N)N)C(=O)N[C@H](CCCNC(=N)N)C(=O)N[C@H](CCCNC(=N)N)C(=O)O)[C@@H](C)O)[C@@H](C)O`: the outcome in [2], in data set [3], in data set [1] and in data set [4] was inactive.
Take `CC(=O)N[C@@H](Cc1ccc(O)cc1)C(=O)N[C@@H](CCC(N)=O)C(=O)N[C@@H](CCC(N)=O)C(=O)N[C@@H](Cc1ccc(O)cc1)C(=O)N[C@@H](CCC(N)=O)C(=O)N[C@@H](CC(=O)O)C(=O)N[C@@H](C)C(=O)N[C@H](C(=O)N[C@@H](C)C(=O)N[C@@H](CC(=O)O)C(=O)N[C@@H](CCC(=O)O)C(=O)N[C@@H](CCC(N)=O)C(=O)NCC(=O)NCC(=O)N[C@@H](CO)C(=O)NCC(=O)N[C@@H](CO)C(=O)N[C@@H](CC(C)C)C(=O)N[C@@H](CC(=O)O)C(=O)N1CCC[C@H]1C(=O)N[C@@H](CCC(=O)O)C(=O)N[C@H](C(=O)NCC(=O)N[C@@H](CCC(=O)O)C(=O)N[C@@H](Cc1ccccc1)C(=O)N[C@@H](CC(C)C)C(=O)N[C@H](CCCNC(=N)N)C(=O)N[C@H](CCCNC(=N)N)C(=O)N[C@H](CCCNC(=N)N)C(=O)N[C@H](CCCNC(=N)N)C(=O)N[C@H](CCCNC(=N)N)C(=O)N[C@H](CCCNC(=N)N)C(=O)N[C@H](CCCNC(=N)N)C(=O)N[C@H](CCCNC(=N)N)C(=O)O)[C@@H](C)O)[C@@H](C)O`: the result in data set [1] was Active.
Take `CC(=O)N[C@@H](Cc1ccc(O)cc1)C(=O)N[C@@H](CCC(N)=O)C(=O)N[C@@H](CCC(N)=O)C(=O)N[C@@H](Cc1ccc(O)cc1)C(=O)N[C@@H](CCC(N)=O)C(=O)N[C@@H](CC(=O)O)C(=O)N[C@@H](C)C(=O)N[C@H](C(=O)N[C@@H](C)C(=O)N[C@@H](CC(=O)O)C(=O)N[C@@H](CCC(=O)O)C(=O)N[C@@H](CCC(N)=O)C(=O)NCC(=O)NCC(=O)N[C@@H](CO)C(=O)NCC(=O)N[C@@H](CO)C(=O)N[C@@H](CC(C)C)C(=O)N[C@@H](CC(=O)O)C(=O)N1CCC[C@H]1C(=O)N[C@@H](CCC(=O)O)C(=O)N[C@H](C(=O)NCC(=O)N[C@@H](CCC(=O)O)C(=O)N[C@@H](Cc1ccc(O)cc1)C(=O)N[C@@H](CC(C)C)C(=O)N[C@H](CCCNC(=N)N)C(=O)N[C@H](CCCNC(=N)N)C(=O)N[C@H](CCCNC(=N)N)C(=O)N[C@H](CCCNC(=N)N)C(=O)N[C@H](CCCNC(=N)N)C(=O)N[C@H](CCCNC(=N)N)C(=O)N[C@H](CCCNC(=N)N)C(=O)N[C@H](CCCNC(=N)N)C(=O)O)[C@@H](C)O)[C@@H](C)O`: the outcome in data set [5], in [3] and in data set [1] was Active. Besides, the result in data set [2] and in data set [4] was inactive. Besides, the Kd stood at 0.763 µM in data set [6] and 0.0228 µM in data set [9]. Besides, the Drug uptake entry in [7] and in [8] was “Active” each time. The Activity result in data set [10] and in data set [11] was “Dose-dependent effect” each time.
With `CC(=O)N[C@@H](CCCCN)C(=O)N[C@@H](CC(=O)O)C(=O)N[C@@H](Cc1ccc(O)cc1)C(=O)N[C@@H](CCC(=O)O)C(=O)N[C@@H](CCC(=O)O)C(=O)N[C@H](C(=O)NCC(=O)N[C@H](C(=O)N[C@@H](CC(=O)O)C(=O)N[C@@H](CO)C(=O)N[C@H](C(=O)N[C@@H](CCC(=O)O)C(=O)NCC(=O)N[C@@H](CO)C(=O)NCC(=O)N[C@@H](CO)C(=O)N[C@@H](CC(C)C)C(=O)N[C@@H](CC(=O)O)C(=O)N1CCC[C@H]1C(=O)N[C@@H](CCC(=O)O)C(=O)N[C@H](C(=O)NCC(=O)N[C@@H](CCC(=O)O)C(=O)N[C@@H](Cc1ccc(O)cc1)C(=O)N[C@@H](CC(C)C)C(=O)N[C@H](CCCNC(=N)N)C(=O)N[C@H](CCCNC(=N)N)C(=O)N[C@H](CCCNC(=N)N)C(=O)N[C@H](CCCNC(=N)N)C(=O)N[C@H](CCCNC(=N)N)C(=O)N[C@H](CCCNC(=N)N)C(=O)N[C@H](CCCNC(=N)N)C(=O)N[C@H](CCCNC(=N)N)C(=O)O)[C@@H](C)O)C(C)C)C(C)C)C(C)C`, the outcome in data set [1] was Active.

Broadly, the Kd is the free concentration of one partner at which half of the binding sites on the other are occupied at equilibrium, for simple one-to-one binding. Low readings indicate tighter binding, high ones weaker binding.
